# Source: patent US12564641B2 (EISAI R&D MANAGEMENT CO., LTD., priority 2019, dated 2026)
# Like-named read-outs stand apart in the source and are kept apart here.
# Experiments:
# [1] = tested on: various cell lines (51 cell lines); experiment: In vitro potency (IC50, Crystal Violet) in cell lines with varying mesothelin expression; format: cell-based
# Protocol: Cytotoxicitly Cells were sub-cultured and seeded at 5,000 cells/well in complete growth medium in 96-well tissue culture plates, and incubated at 37° C., 5% CO2 overnight (16 hours). Test reagents were serially diluted 1:3 in 2 mL deep-well dilution plates, starting at 200 nM (10 dilutions total). Diluted samples (100 μL) were added to the cell plates (starting concentration of test samples at 100 nM). Plates were incubated at 37° C., 5% CO2 for an additional 5 days. Medium was then discarded, and plates were washed once with 200 μL DPBS, stained with 50 μL of 0.2% Crystal Violet solution at room temperature for 15 min, and then washed extensively with tap water. Plates were air-dried, and Crystal Violet was dissolved with 200 μL of 1% SDS solution. Plates were read at 570 nm. Data was analyzed for IC50 determination using GraphPad Prism 6. Correlation analysis was performed in GraphPad Prism using a non-parametric Spearman analysis.
# H226 cells = experiment: In vitro cytotoxicity analysis (Crystal Violet), H226; format: cell-based; details: Homo sapiens
# Protocol: Plates were read at 570 nm. Data was analyzed using GraphPad Prism 6.
# MSLN-positive cell lines = experiment: In vitro cytotoxicity (IC50, Crystal Violet) on MSLN-positive cell lines (Example 11)
# Protocol: Cytotoxicity: Cells were sub-cultured and seeded at 5,000 cells/well in complete growth medium in 96-well tissue culture plates, and incubated at 37° C., 5% CO2 overnight (16 hours). Test reagents were serially diluted 1:3 in 2 mL deep-well dilution plates, starting at 200 nM (10 dilutions total). Diluted samples (100 μL) were added to the cell plates (starting concentration of test samples at 100 nM). Plates were incubated at 37° C. 5% CO2 for an additional 5 days. Medium was then discarded, and plates were washed once with 200 μL DPBS, stained with 50 μL of 0.2% Crystal Violet solution at room temperature for 15 min, and then washed extensively with tap water. Plates were air-dried, and Crystal Violet was dissolved with 200 μL of 1% SDS solution. Plates were read at 570 nm. Data was analyzed for IC50 determination using GraphPad Prism 6.
compound,measurement,setting,value
"C=C1C[C@@H]2CC[C@@]34C[C@H]5O[C@H]6[C@@H](O3)[C@H]3O[C@H](CC[C@@H]3O[C@H]6[C@H]5O4)CC(=O)C[C@@H]3[C@@H](OC)[C@@H](C[C@H](O)CN)O[C@H]3C[C@H]3O[C@@H](CC[C@@H]1O2)C[C@@H](C)C3=C [Eribulin, eribulin, reference compound]",IC50,[1]; A431-K5 cells (MSLN MFI 1430.3),1.5 nM
same,IC50,"[1]; COV362, COV362 cells (MSLN MFI 113.5)",2.78 nM
same,IC50,[1]; HAC-2 cells (MSLN MFI 172.3),26.6 nM
same,IC50,"[1]; HEC-251, HEC-251 cells (MSLN MFI 53.3)",0.5 nM
same,IC50,"[1]; HK-1, HK1 cells (MSLN MFI 39.2)",0.89 nM
same,IC50,"[1]; HNE1, HNE-1 cells (MSLN MFI 110.8)",0.87 nM
same,IC50,[1]; HNE-1-T1 cells (MSLN MFI 79.3),1.03 nM
same,IC50,"[1]; Homo sapiens, A549, A549 cells (MSLN MFI 14.2)",2.72 nM
same,IC50,"[1]; Homo sapiens, A-431, A431 cells (MSLN MFI 5.6)",0.55 nM
same,IC50,"[1]; Homo sapiens, ASPC1, AsPC1 cells (MSLN MFI 33.47)",1.62 nM
same,IC50,"[1]; Homo sapiens, BXPC-3, BxPC3 cells (MSLN MFI 15.59)",0.66 nM
same,IC50,"[1]; Homo sapiens, CNE-2, CNE2 cells (MSLN MFI 147.7)",0.49 nM
same,IC50,"[1]; Homo sapiens, Caov-3, CaOV-3 cells (MSLN MFI 137.6)",0.44 nM
same,IC50,"[1]; Homo sapiens, Capan-2, Capan-2 cells (MSLN MFI 36)",1.21 nM
same,IC50,"[1]; Homo sapiens, EGI-1, EGI-1 cells (MSLN MFI 14.8)",1.48 nM
same,IC50,"[1]; Homo sapiens, HCC1806, HCC1806 cells (MSLN MFI 189.3)",0.37 nM
same,IC50,"[1]; Homo sapiens, HEC-1-A, HEC-1-A cells (MSLN MFI 16.5)",0.68 nM
same,IC50,"[1]; Homo sapiens, HEC-1B, HEC-1-B cells (MSLN MFI 16.9)",0.54 nM
same,IC50,"[1]; Homo sapiens, HONE1, HONE1 cells (MSLN MFI 108.6)",0.89 nM
same,IC50,"[1]; Homo sapiens, JIMT-1, JIMT-1 cells (MSLN MFI 36.4)",0.39 nM
same,IC50,"[1]; Homo sapiens, Lu-65, Lu65 cells (MSLN MFI 13.13)",0.56 nM
same,IC50,"[1]; Homo sapiens, MFE-280, MFE-280 cells (MSLN MFI 45.1)",3.24 nM
same,IC50,"[1]; Homo sapiens, MKN-1, MKN1 cells (MSLN MFI 22.06)",0.96 nM
same,IC50,"[1]; Homo sapiens, MKN-7, MKN7 cells (MSLN MFI 18.48)",0.58 nM
same,IC50,"[1]; Homo sapiens, MKN-45, MKN45 cells (MSLN MFI 57.94)",3.65 nM
same,IC50,"[1]; Homo sapiens, MKN-74, MKN74 cells (MSLN MFI 7.73)",0.78 nM
same,IC50,"[1]; Homo sapiens, NCI-H23, NCI-H23 cells (MSLN MFI 4.42)",0.6 nM
same,IC50,"[1]; Homo sapiens, NCI-H226, H226 cells (MSLN MFI 725.3)",0.66 nM
same,IC50,"[1]; Homo sapiens, NCI-H292, NCI-H292 cells (MSLN MFI 108.6)",0.58 nM
same,IC50,"[1]; Homo sapiens, NCI-H460, NCI-H460 cells (MSLN MFI 8.56)",35.3 nM
same,IC50,"[1]; Homo sapiens, NCI-H1355, NCI-H1355 cells (MSLN MFI 11.5)",0.67 nM
same,IC50,"[1]; Homo sapiens, NCI-H1650, NCI-H1650/MSLN cells (MSLN MFI 1865.5)",0.84 nM
same,IC50,"[1]; Homo sapiens, NCI-H1650, NCI-H1650 cells (MSLN MFI 31.5)",0.61 nM
same,IC50,"[1]; Homo sapiens, NCI-H2126, NCI-H2126 cells (MSLN MFI 73.6)",0.53 nM
same,IC50,"[1]; Homo sapiens, NCI-N87, NCI-N87 cells (MSLN MFI 125.8)",0.11 nM
same,IC50,"[1]; Homo sapiens, OVCAR-3, OVCAR3 A1 cells (MSLN MFI 220)",0.15 nM
same,IC50,"[1]; Homo sapiens, PC-9, PC9 cells (MSLN MFI 11.24)",0.56 nM
same,IC50,"[1]; Homo sapiens, SUNE1, SUNE1 cells (MSLN MFI 212.4)",0.56 nM
same,IC50,"[1]; Homo sapiens, T47D, T-47D cells (MSLN MFI 4.4)",0.68 nM
same,IC50,[1]; Kuramochi cells (MSLN MFI 211.2),0.89 nM
same,IC50,[1]; MOR/CPR cells (MSLN MFI 120.79),3.69 nM
same,IC50,"[1]; NCI-H322, NCI-H322 cells (MSLN MFI 83.9)",0.46 nM
same,IC50,[1]; NCI-H1355-Sorted cells (MSLN MFI 32.7),0.7 nM
same,IC50,"[1]; NCI-H1568, NCI-H1568/MSLN cells (MSLN MFI 4474)",0.44 nM
same,IC50,"[1]; NCI-H2110, NCI-H2110 cells (MSLN MFI 112.2)",0.32 nM
same,IC50,"[1]; SNU-216, SNU216 cells (MSLN MFI 94.91)",1.78 nM
same,IC50,[1]; SNU-245 cells (MSLN MFI 23.9),78.2 nM
same,IC50,[1]; SNU-478 cells (MSLN MFI 53.8),1.58 nM
same,IC50,[1]; SNU-1196 cells (MSLN MFI 40.2),1.14 nM
same,IC50,[1]; TFK1 cells (MSLN MFI 132.81),1.27 nM
same,EC50,"H226 cells; NCI-H226, 120 h, Table 18, 5 days, read-out: Cell-Based Cytotoxicity Assay, EC50 (nM) H226",5.3 nM
same,EC50,"H226 cells; NCI-H226, Table 19, payloads, read-out: Cell-Based Cytotoxicity Assay EC50 (nM) H226",5.3 nM
same,IC50,"MSLN-positive cell lines; Homo sapiens, NCI-H292, read-out: In vitro cell based potency, IC50",0.11 nM
same,% Max Killing,MSLN-positive cell lines; NCI-H292 cells (MSLN MFI 108.6),85.37%
same,IC50,"MSLN-positive cell lines; NCI-H1568, read-out: In vitro cell based potency, IC50",0.14 nM
same,% Max Killing,MSLN-positive cell lines; NCI-H1568/MSLN cells (MSLN MFI 4474.00),74.39%
same,% Max Killing,MSLN-positive cell lines; OVCAR3-A1 cells (MSLN MFI 220.0),99.31%
same,IC50,"MSLN-positive cell lines; read-out: In vitro cell based potency, IC50",0.02 nM
